# According to US9212163B2, “Pesticidal compositions and processes related thereto” (Dow AgroSciences LLC, priority 2012, dated 2015):
# System: Beet Armyworm (BAW) (Spodoptera exigua)
# Assay: Bioassay on Beet Armyworm (BAW), 128-well diet tray assay
# Assay type: in vivo
# Conditions: Table 3: Assay Results Part 1
# Method: Certain molecules disclosed in this document were tested against BAW, CEW and CL using procedures described in the following examples. In the reporting of the results, the “BAW & CEW & CL Rating Table” was used (See Table Section).
# Bioassays on BAW (Spodoptera exigua)
# Bioassays on BAW were conducted using a 128-well diet tray assay. One to five second instar BAW larvae were placed in each well (3 mL) of the diet tray that had been previously filled with 1 mL of artificial diet to which 50 μg/cm^2 of the test compound (dissolved in 50 μL of 90:10 acetone-water mixture) had been applied (to each of eight wells) and then allowed to dry. Trays were covered with a clear self-adhesive cover, and held at 25° C., 14:10 light-dark for five to seven days. Percent mortality was recorded for the larvae in each well; activity in the eight wells was then averaged. The results are indicated in the tables entitled “Table 3: Assay Results Part 1” and “Table 4: Assay Results Part 2” (See Table Section).
row,Compound,BAW Rating
1,COc1cc(/C=C/C(c2cc(Cl)c(F)c(Cl)c2)C(F)(F)F)ccc1C(=O)NC1CSC1 (stereo not shown) [AC71],A (50-100)
2,CCc1cc(/C=C/C(c2cc(Cl)c(F)c(Cl)c2)C(F)(F)F)ccc1C(=O)NCc1ccc(Cl)nc1 (stereo not shown) [AC72],A (50-100)
3,O=C(NCc1ccc(C(F)(F)F)nc1)c1ccc(/C=C/C(c2cc(Cl)c(Cl)c(Cl)c2)C(F)(F)F)cc1Br (stereo not shown) [AC75],A (50-100)
4,Cc1cc(/C=C/C(c2cc(Cl)c(F)c(Cl)c2)C(F)(F)F)ccc1C(=O)NCc1cc(Cl)ccn1 (stereo not shown) [AC77],A (50-100)
5,Cc1cc(/C=C/C(c2cc(Cl)c(Cl)c(Cl)c2)C(F)(F)F)ccc1C(=O)NCC(=O)NCC(F)(F)F (stereo not shown) [AC78],A (50-100)
6,"O=C(CNC(=O)c1ccc(/C=C/C(c2cc(Cl)c(F)c(Cl)c2)C(F)(F)F)cc1Br)NCC(F)(F)F (stereo not shown) [AC79, (E)-2-Bromo-4-(3-(3,5-dichloro-4-fluorophenyl)-4,4,4-trifluorobut-1-en-1-yl)-N-(2-oxo-2-((2,2,2-trifluoroethyl)amino)ethyl)benzamide]",A (50-100)
7,CCc1cc(/C=C/C(c2cc(Cl)c(F)c(Cl)c2)C(F)(F)F)ccc1C(=O)NCC(=O)NCC(F)(F)F (stereo not shown) [AC80],A (50-100)
8,Cc1cc(/C=C/C(c2cc(Cl)cc(Cl)c2)C(F)(F)F)ccc1C(=O)NCC(=O)NC1CS(=O)(=O)C1 (stereo not shown) [AC81],A (50-100)
9,"O=C(NC1CS(=O)(=O)C1)c1ccc(/C=C/C(c2cc(Cl)cc(Cl)c2)C(F)(F)F)cc1F (stereo not shown) [AC83, (E)-4-(3-(3,5-Dichlorophenyl)-4,4,4-trifluorobut-1-en-1-yl)-N-(1,1-dioxidothietan-3-yl)-2-fluorobenzamide]",A (50-100)
10,O=C(NC1CS(=O)(=O)C1)c1ccc(/C=C/C(c2cc(Cl)c(F)c(Cl)c2)C(F)(F)F)cc1F (stereo not shown) [AC84],A (50-100)
11,COc1cc(/C=C/C(c2cc(Cl)c(F)c(Cl)c2)C(F)(F)F)ccc1C(=O)NC1CS(=O)(=O)C1 (stereo not shown) [AC85],A (50-100)
12,CCc1cc(/C=C/C(c2cc(Cl)c(F)c(Cl)c2)C(F)(F)F)ccc1C(=O)NC1CS(=O)(=O)C1 (stereo not shown) [AC86],A (50-100)
13,O=C(NC1C[S+]([O-])C1)c1ccc(/C=C/C(c2cc(Cl)c(F)c(Cl)c2)C(F)(F)F)cc1F (stereo not shown) [AC87],A (50-100)
14,"Cc1cc(/C=C/C(c2cc(Cl)cc(Cl)c2)C(F)(F)F)ccc1C(=O)NCc1nnc(C2CC2)o1 (stereo not shown) [AC89, (E)-N-((5-Cyclopropyl-1,3,4-oxadiazol-2-yl)methyl)-4-(3-(3,5-dichlorophenyl)-4,4,4-trifluorobut-1-en-1-yl)-2-methylbenzamide]",A (50-100)
15,"FC(F)(F)CNC(=S)CNC(=S)c1ccc(/C=C/C(c2cc(Cl)c(Cl)c(Cl)c2)C(F)(F)F)cc1Br (stereo not shown) [AC90, (E)-2-Bromo-N-(2-thioxo-2-((2,2,2-trifluoroethyl)amino)ethyl)-4-(4,4,4-trifluoro-3-(3,4,5-trichlorophenyl)but-1-en-1-yl)benzothioamide]",A (50-100)
16,"O=C(CNC(=S)c1ccc(/C=C/C(c2cc(Cl)c(Cl)c(Cl)c2)C(F)(F)F)cc1Br)NCC(F)(F)F (stereo not shown) [AC91, (E)-2-(2-Bromo-4-(4,4,4-trifluoro-3-(3,4,5-trichlorophenyl)but-1-en-1-yl)phenylthioamido)-N-(2,2,2-trifluoroethyl)acetamide]",A (50-100)
17,"O=C(NCC(=S)NCC(F)(F)F)c1ccc(/C=C/C(c2cc(Cl)c(Cl)c(Cl)c2)C(F)(F)F)cc1Br (stereo not shown) [AC92, (E)-2-Bromo-N-(2-thioxo-2-((2,2,2-trifluoroethyl)amino)ethyl)-4-(4,4,4-trifluoro-3-(3,4,5-trichlorophenyl)but-1-en-1-yl)benzamide]",A (50-100)
18,Cc1cc(/C=C\C(c2cc(Cl)cc(Cl)c2)C(F)(F)F)ccc1C(=O)NCC(=O)NC1CC1 (stereo not shown) [AC93],A (50-100)
19,"O=C(CNC(=O)c1ccc(/C=C\C(c2cc(Cl)c(Cl)c(Cl)c2)C(F)(F)F)cc1Br)NCC(F)(F)F (stereo not shown) [AC95, (Z)-2-Bromo-N-(2-oxo-2-((2,2,2-trifluoroethyl)amino)ethyl)-4-(4,4,4-trifluoro-3-(3,4,5-trichlorophenyl)but-1-en-1-yl)benzamide]",A (50-100)
20,O=C(CNC(=O)c1ccc(/C=C/C(c2cc(Cl)c(F)c(Cl)c2)C(F)(F)F)cc1[N+](=O)[O-])NCC(F)(F)F (stereo not shown) [AC98],A (50-100)
21,O=C(CNC(=O)c1ccc(/C=C/C(c2ccc(F)c(Cl)c2)C(F)(F)F)cc1Br)NCC(F)(F)F (stereo not shown) [AC99],A (50-100)
22,"CC(=O)N1CCC(NC(=O)c2ccc(/C=C/C(c3cc(Cl)c(Cl)c(Cl)c3)C(F)(F)F)cc2Br)CC1 (stereo not shown) [AC103, (E)-N-(1-Acetylpiperidin-4-yl)-2-bromo-4-(4,4,4-trifluoro-3-(3,4,5-trichlorophenyl)but-1-en-1-yl)benzamide]",A (50-100)
23,"O=C(NC1CCN(C(=O)CC(F)(F)F)CC1)c1ccc(/C=C/C(c2cc(Cl)c(Cl)c(Cl)c2)C(F)(F)F)cc1Br (stereo not shown) [AC104, (E)-2-Bromo-4-(4,4,4-trifluoro-3-(3,4,5-trichlorophenyl)but-1-en-1-yl)-N-(1-(3,3,3-trifluoropropanoyl)piperidin-4-yl)benzamide]",A (50-100)

row,Compound,BAW Rating
1,"CN1CCC(NC(=O)c2ccc(/C=C/C(c3cc(Cl)c(Cl)c(Cl)c3)C(F)(F)F)cc2Br)CC1 (stereo not shown) [AC106, (E)-2-Bromo-N-(1-methylpiperidin-4-yl)-4-(4,4,4-trifluoro-3-(3,4,5-trichlorophenyl)but-1-en-1-yl)benzamide]",A (50-100)
2,N#CCN1CCC(NC(=O)c2ccc(/C=C/C(c3cc(Cl)c(Cl)c(Cl)c3)C(F)(F)F)cc2Br)CC1 (stereo not shown) [AC107],B (More than 0-Less than 50)
3,"O=C(NC1CCN(C2COC2)CC1)c1ccc(/C=C/C(c2cc(Cl)c(Cl)c(Cl)c2)C(F)(F)F)cc1Br (stereo not shown) [AC108, (E)-2-Bromo-N-(1-(oxetan-3-yl)piperidin-4-yl)-4-(4,4,4-trifluoro-3-(3,4,5-trichlorophenyl)but-1-en-1-yl)benzamide]",B (More than 0-Less than 50)
4,CONC(=O)CNC(=O)c1ccc(/C=C/C(c2cc(Cl)c(Cl)c(Cl)c2)C(F)(F)F)cc1Br (stereo not shown) [AC110],A (50-100)
5,C=CCNC(=O)CNC(=O)c1ccc(/C=C/C(c2cc(Cl)c(Cl)c(Cl)c2)C(F)(F)F)cc1Br (stereo not shown) [AC111],A (50-100)
6,O=C(NCCc1ccc(Cl)nc1)c1ccc(/C=C/C(c2cc(Cl)c(Cl)c(Cl)c2)C(F)(F)F)cc1Br (stereo not shown) [AC113],B (More than 0-Less than 50)
7,"O=C(NC1CCNCC1)c1ccc(/C=C/C(c2cc(Cl)c(Cl)c(Cl)c2)C(F)(F)F)cc1Br (stereo not shown) [AC114, (E)-2-Bromo-N-(piperidin-4-yl)-4-(4,4,4-trifluoro-3-(3,4,5-trichlorophenyl)but-1-en-1-yl)benzamide]",A (50-100)
8,"Cc1cc(/C=C/C(c2cc(Cl)cc(Cl)c2)C(F)(F)F)ccc1C(=S)NCc1ccc(Cl)nc1 (stereo not shown) [AC115, (E)-N-((6-Chloropyridin-3-yl)methyl)-4-(3-(3,5-dichlorophenyl)-4,4,4-trifluorobut-1-en-1-yl)-2-methylbenzothioamide]",A (50-100)
9,Cc1cc(/C=C/C(c2cc(Cl)cc(Cl)c2)C(F)(F)F)ccc1C(=O)N(C)Cc1ccc(Cl)nc1 (stereo not shown) [AC117],A (50-100)
10,Cc1cc(/C=C/C(c2cc(Cl)cc(Cl)c2)C(F)(F)F)ccc1C(=O)NCC1CCCO1 (stereo not shown) [AC118],A (50-100)
11,O=C(CC(F)(F)F)NC1CCCc2cc(/C=C/C(c3cc(Cl)c(Cl)c(Cl)c3)C(F)(F)F)ccc21 (stereo not shown) [BC5],A (50-100)
12,O=C(NC1CCc2cc(/C=C/C(c3cc(Cl)c(Cl)c(Cl)c3)C(F)(F)F)ccc21)C1CC1 (stereo not shown) [BC6],A (50-100)
13,O=C(NC1CCCc2cc(/C=C/C(c3cc(Cl)c(Cl)c(Cl)c3)C(F)(F)F)ccc21)C1CC1 (stereo not shown) [BC7],A (50-100)
14,O=C(CC(F)(F)F)NC1CCc2cc(/C=C/C(c3cc(Cl)c(F)c(Cl)c3)C(F)(F)F)ccc21 (stereo not shown) [BC8],A (50-100)
15,O=C(Cc1ccc(Cl)nc1)NC1CCc2cc(/C=C/C(c3cc(Cl)c(F)c(Cl)c3)C(F)(F)F)ccc21 (stereo not shown) [BC9],A (50-100)
16,"Fc1c(Cl)cc(C(/C=C/c2ccc3c(c2)CCC3NCCC(F)(F)F)C(F)(F)F)cc1Cl (stereo not shown) [BC10, (E)-5-(3-(3,5-Dichloro-4-fluorophenyl)-4,4,4-trifluorobut-1-en-1-yl)-N-(3,3,3-trifluoropropyl)-2,3-dihydro-1H-inden-1-amine]",A (50-100)
17,"O=C(CC(F)(F)F)NCC(=O)n1ccc2cc(/C=C/C(c3cc(Cl)c(F)c(Cl)c3)C(F)(F)F)ccc21 (stereo not shown) [BC13, (E)-N-(2-(5-(3-(3,5-Dichloro-4-fluorophenyl)-4,4,4-trifluorobut-1-en-1-yl)-1H-indol-1-yl)-2-oxoethyl)-3,3,3-trifluoropropanamide]",A (50-100)
18,"O=C(Cn1ncc2cc(/C=C/C(c3cc(Cl)c(F)c(Cl)c3)C(F)(F)F)ccc2c1=O)NCC(F)(F)F (stereo not shown) [BC14, (E)-2-(6-(3-(3,5-Dichloro-4-fluorophenyl)-4,4,4-trifluorobut-1-en-1-yl)-1-oxophthalazin-2(1H)-yl)-N-(2,2,2-trifluoroethyl)acetamide]",A (50-100)
19,O=C(NCc1ccc(/C=C/C(c2cc(Cl)cc(Cl)c2)C(F)(F)F)cc1)C1CC1 (stereo not shown) [CC2],A (50-100)
20,O=C(CC(F)(F)F)NCc1ccc(/C=C/C(c2cc(Cl)cc(Cl)c2)C(F)(F)F)cc1 (stereo not shown) [CC3],A (50-100)
21,CCC(=O)NCc1ccc(/C=C/C(c2cc(Cl)cc(Cl)c2)C(F)(F)F)cc1 (stereo not shown) [CC4],A (50-100)
22,O=C(NCc1ccc(/C=C/C(c2cc(Cl)c(Cl)c(Cl)c2)C(F)(F)F)cc1)C1CC1 (stereo not shown) [CC5],A (50-100)
23,O=C(CC(F)(F)F)NCc1ccc(/C=C/C(c2cc(Cl)c(Cl)c(Cl)c2)C(F)(F)F)cc1 (stereo not shown) [CC6],A (50-100)
